Changes are numbered by the printed parent chain. Like-named read-outs stand apart in the source and are kept apart here.
What was measured:
mutant MGL = target: T1, mutant MGL (Homo sapiens, UniProt Q99685, L169S/L176S); assay: MGL ThermoFluor assay - mutant; type: binding
T1 sequence (Q99685 1-303 L169S/L176S): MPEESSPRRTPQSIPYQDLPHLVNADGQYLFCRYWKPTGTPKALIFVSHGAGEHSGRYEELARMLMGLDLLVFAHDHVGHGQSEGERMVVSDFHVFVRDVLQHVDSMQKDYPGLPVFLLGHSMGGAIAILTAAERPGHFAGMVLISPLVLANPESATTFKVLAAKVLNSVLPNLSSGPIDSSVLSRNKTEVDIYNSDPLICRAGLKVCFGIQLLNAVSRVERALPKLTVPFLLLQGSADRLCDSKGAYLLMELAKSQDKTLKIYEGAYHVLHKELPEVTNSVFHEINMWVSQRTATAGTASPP

[1] = target: T2, purified wild type MGL (wt-MGLL 6H-11-313) (Homo sapiens, UniProt Q99685)
T2 sequence (Q99685 1-303): T1 sequence (Q99685 1-303 L169S/L176S) with S169L, S176L

[2] = ThermoFluor concentration-response, read-out: MGL mutant ThermoFluor Kd
[3] = ThermoFluor thermal stability binding assay, read-out: MGL mutant ThermoFluor Kd
[4] = ThermoFluor, compound concentration measured by qNMR, read-out: MGL mutant ThermoFluor qKd (using qNMR conc.)
[5] = ThermoFluor, compound concentration measured by qNMR, read-out: MGL mutant ThermoFluor qKd (μM) (using qNMR conc.)
[6] = compound concentration measured by qNMR, read-out: MGL mutant ThermoFluor qKd (using qNMR conc.)

| SMILES | Kd (mutant MGL; [2]) | IC50 [1] | other results |
| --- | --- | --- | --- |
| O=C(c1ccc(Oc2ccc(Cl)cn2)cc1)N1CC(N2CCN(C(=O)c3nccs3)CC2)C1 [Cpd 717] | 0.067 µM | 147 nM |  |
| O=C(c1ccc2nc(C(F)(F)F)sc2c1)N1CC(N2CCN(C(=O)c3nccs3)CC2)C1 [Cpd 718] |  | 148 nM | Kd (mutant MGL; [3]): 0.072 µM |
| Cc1c(C(=O)N2CC(N3CCN(C(=O)c4nccs4)CC3)C2)[nH]c2ccc(F)cc12 [Cpd 719] |  | 154 nM | Kd (mutant MGL; [4]): 0.119 µM |
| O=C(c1ccc(Oc2ncc(C(F)(F)F)cc2Cl)cc1)N1CC(N2CCN(C(=O)c3cscn3)CC2)C1 [Cpd 720] | 0.347 µM | 173 nM |  |
| COc1ccc2c(C)c(C(=O)N3CC(N4CCN(C(=O)c5nccs5)CC4)C3)oc2c1 [Cpd 721] | 1.14 µM | 173 nM |  |
| O=C(c1ccc[nH]1)N1CC(N2CCN(C(=O)c3cc4cc(C(F)(F)F)ccc4s3)CC2)C1 [Cpd 722, 1-[1-(1H-Pyrrol-2-ylcarbonyl)azetidin-3-yl]-4-{[5-(trifluoromethyl)-1-benzothiophen-2-yl]carbonyl}piperazine] | 0.082 µM | 180 nM |  |
| Cc1cc(C(=O)N2CC(N3CCN(C(=O)c4nccs4)CC3)C2)sc1Br [Cpd 723] |  | 181 nM | Kd (mutant MGL; [5]): 0.292 µM |
| O=C(c1ccc2c(c1)CCN2C(=O)c1ccccc1)N1CC(N2CCN(C(=O)c3nccs3)CC2)C1 [Cpd 724, 1-(Phenylcarbonyl)-5-({3-[4-(1,3-thiazol-2-ylcarbonyl)piperazin-1-yl]azetidin-1-yl}carbonyl)-2,3-dihydro-1H-indole] | 0.05 µM | 206 nM |  |
| Cc1c(C(=O)N2CCN(C3CN(C(=O)c4cncs4)C3)CC2)sc2cc(C(F)(F)F)ccc12 [Cpd 726] | 0.127 µM | 218 nM |  |
| Cc1cc(C(=O)N2CC(N3CCN(C(=O)c4nccs4)CC3)C2)ccc1Br [Cpd 727] |  | 219 nM | Kd (mutant MGL; [4]): 0.251 µM |
| O=C(c1ccc2c(c1)CCN(C(=O)C1CCC(F)(F)CC1)C2)N1CC(N2CCN(C(=O)c3nccs3)CC2)C1 [Cpd 729] |  | 236 nM | Kd (mutant MGL; [3]): 0.185 µM |
| O=C(c1ccc(OCC(F)(F)F)cc1)N1CC(N2CCN(C(=O)c3nccs3)CC2)C1 [Cpd 730] |  | 238 nM | Kd (mutant MGL; [4]): 0.146 µM |
| Cc1c(C(=O)N2CCN(C3CN(C(=O)c4ccc[nH]4)C3)CC2)sc2cc(C(F)(F)F)ccc12 [Cpd 731] | 0.016 µM | 238 nM |  |
| Cc1nc2cc(C(=O)N3CC(N4CCN(C(=O)c5nccs5)CC4)C3)ccc2n1C1CCCCC1 [Cpd 732] | 0.002 µM | 239 nM |  |
| Cc1c(C(=O)N2CC(N3CCN(C(=O)c4ccc[nH]4)CC3)C2)n(C)c2ccc(Cl)cc12 [Cpd 733] |  | 240 nM | Kd (mutant MGL; [4]): 0.453 µM |
| O=C(c1ccc(Oc2cccnc2)cc1)N1CC(N2CCN(C(=O)c3nccs3)CC2)C1 [Cpd 734] | 1.26 µM | 256 nM |  |
| O=C(c1ccc2[nH]c(C3CCCCC3)nc2c1)N1CC(N2CCN(C(=O)c3nccs3)CC2)C1 [Cpd 735] | 0.16 µM | 268 nM |  |
| Cc1ccc2sc(C(=O)N3CC(N4CCN(C(=O)c5cscn5)CC4)C3)c(C(F)(F)F)c2c1 [Cpd 737, 1-(1-{[5-Methyl-3-(trifluoromethyl)-1-benzothiophen-2-yl]carbonyl}azetidin-3-yl)-4-(1,3-thiazol-4-ylcarbonyl)piperazine] | 0.031 µM | 285 nM |  |
| O=C(c1ccc(S(=O)(=O)c2cccc(C(F)(F)F)c2)cc1)N1CC(N2CCN(C(=O)c3cscn3)CC2)C1 [Cpd 738] | 0.291 µM | 289 nM |  |
| O=C(c1ccc[nH]1)N1CCN(C2CN(C(=O)c3[nH]c4nc(C(F)(F)F)ccc4c3Br)C2)CC1 [Cpd 739] |  | 290 nM | Kd (mutant MGL; [4]): 0.265 µM |
| CC(C)n1c(C(F)(F)F)nc2cc(C(=O)N3CC(N4CCN(C(=O)c5nccs5)CC4)C3)ccc21 [Cpd 740] | 0.035 µM | 294 nM |  |
| Cc1c(C(=O)N2CC(N3CCN(C(=O)c4cscn4)CC3)C2)sc2cc(F)ccc12 [Cpd 742] |  | 306 nM | Kd (mutant MGL; [3]): 0.02 µM |
| O=C(c1cnc2cc(Cl)c(Cl)cc2c1)N1CC(N2CCN(C(=O)c3nccs3)CC2)C1 [Cpd 743] |  | 324 nM | Kd (mutant MGL; [4]): 0.133 µM |
| O=C(c1nccs1)N1CC(N2CCN(C(=O)c3[nH]c4nc(C(F)(F)F)ccc4c3Br)CC2)C1 [Cpd 746] |  | 373 nM | Kd (mutant MGL; [4]): 0.263 µM |
| O=C(c1cc2cc(C(F)(F)F)ccc2[nH]1)N1CCN(C2CN(C(=O)c3nccs3)C2)CC1 [Cpd 747] | 0.111 µM | 377 nM |  |
| Cc1c(C(=O)N2CCN(C3CN(C(=O)c4cc[nH]c4)C3)CC2)sc2cc(C(F)(F)F)ccc12 [Cpd 748] | 0.04 µM | 384 nM |  |
| Cc1c(C(=O)N2CC(N3CCN(C(=O)c4cscn4)CC3)C2)sc2nc(C(F)(F)F)ccc12 [Cpd 749] |  | 387 nM | Kd (mutant MGL; [5]): 0.036 µM |

| SMILES | Kd (mutant MGL; [2]) | IC50 [1] | other results |
| --- | --- | --- | --- |
| Cn1c2ccccc2c2cc(C(=O)N3CC(N4CCN(C(=O)c5nccs5)CC4)C3)ccc21 [Cpd 750] | 0.025 µM | 395 nM |  |
| Cc1c(C(=O)N2CC(N3CCN(C(=O)c4nccs4)CC3)C2)oc2ccc(F)cc12 [Cpd 751] | 1.32 µM | 402 nM |  |
| O=C(c1ccc(Oc2ccccn2)c(Cl)c1)N1CC(N2CCN(C(=O)c3nccs3)CC2)C1 [Cpd 752] | 0.095 µM | 421 nM |  |
| Cc1c(C(=O)N2CC(N3CCN(C(=O)c4cscn4)CC3)C2)[nH]c2ccc(Cl)cc12 [Cpd 755] | 0.328 µM | 468 nM |  |
| O=C(c1cc2ccc(C(F)(F)F)cc2[nH]1)N1CC(N2CCN(C(=O)c3nccs3)CC2)C1 [Cpd 756] | 0.383 µM | 519 nM |  |
| O=C(c1ccc(Oc2ccc(Cl)cn2)cc1)N1CC(N2CCN(C(=O)c3cscn3)CC2)C1 [Cpd 757] | 0.781 µM | 530 nM |  |
| Cc1c(C(=O)N2CC(N3CCN(C(=O)c4cscn4)CC3)C2)n(C)c2ccc(Cl)cc12 [Cpd 758] |  | 535 nM | Kd (mutant MGL; [4]): 0.5 µM |
| O=C(c1ccc2c(c1)ncn2C1CCC(F)(F)CC1)N1CC(N2CCN(C(=O)c3nccs3)CC2)C1 [Cpd 759] |  | 579 nM | Kd (mutant MGL; [6]): 0.037 µM |
| COc1cccc2c(C)c(C(=O)N3CC(N4CCN(C(=O)c5nccs5)CC4)C3)[nH]c12 [Cpd 760] | 0.199 µM | 581 nM |  |
| O=C(c1ccc2c(c1)ncn2CC(F)(F)F)N1CC(N2CCN(C(=O)c3nccs3)CC2)C1 [Cpd 761] |  | 583 nM | Kd (mutant MGL; [6]): 0.092 µM |
| O=C(c1ccc2[nH]c3c(c2c1)CCCC3)N1CC(N2CCN(C(=O)c3nccs3)CC2)C1 [Cpd 763] | 0.083 µM | 635 nM |  |
| O=C(c1ccc(Oc2ccc(Br)cn2)cc1)N1CC(N2CCN(C(=O)c3cscn3)CC2)C1 [Cpd 765] | 3.09 µM | 667 nM |  |
| CC1(C)Cc2cc(C(=O)N3CC(N4CCN(C(=O)c5nccs5)CC4)C3)ccc2O1 [Cpd 766] |  | 680 nM | Kd (mutant MGL; [4]): 0.378 µM |
| O=C(c1ccc(Oc2cc(C(F)(F)F)ccn2)cc1)N1CC(N2CCN(C(=O)c3cscn3)CC2)C1 [Cpd 769] | 2 µM | 725 nM |  |
| O=C(c1ccc2c(c1)OCCCO2)N1CC(N2CCN(C(=O)c3nccs3)CC2)C1 [Cpd 770] |  | 740 nM | Kd (mutant MGL; [4]): 1.13 µM |
| O=C(c1cscn1)N1CC(N2CCN(C(=O)c3cc4cc(C(F)(F)F)ccc4[nH]3)CC2)C1 [Cpd 772] | 0.185 µM | 799 nM |  |
| O=C(c1ccc2c(c1)CCN2C(=O)C1CC1)N1CC(N2CCN(C(=O)c3nccs3)CC2)C1 [Cpd 773] | 0.04 µM | 845 nM |  |
| O=C(c1cscn1)N1CCN(C2CN(C(=O)c3[nH]c4nc(C(F)(F)F)ccc4c3Br)C2)CC1 [Cpd 774] |  | 848 nM | Kd (mutant MGL; [4]): 0.254 µM |
| O=C(c1nccs1)N1CCN(C2CN(C(=O)c3ccccc3NCc3ccccc3)C2)CC1 [Cpd 775] |  | 862 nM | Kd (mutant MGL; [3]): 0.333 µM |
| CC(C)(C)c1cc(C(=O)N2CC(N3CCN(C(=O)c4nccs4)CC3)C2)cc(C(C)(C)C)c1 [Cpd 776] | 0.257 µM | 902 nM |  |
| Cc1nc2cc(C(=O)N3CC(N4CCN(C(=O)c5nccs5)CC4)C3)ccc2n1CCC(F)(F)F [Cpd 777] |  | 913 nM | Kd (mutant MGL; [6]): 0.048 µM |
| O=C(c1nccs1)N1CCN(C2CN(C(=O)c3sc4cc(C(F)(F)F)ccc4c3Cl)C2)C(C(F)(F)F)C1 (stereo not shown) [Cpd 778, 1-(1-{[3-Chloro-6-(trifluoromethyl)-1-benzothiophen-2-yl]carbonyl}azetidin-3-yl)-4-(1,3-thiazol-2-ylcarbonyl)-2-(trifluoromethyl)piperazine] |  | 933 nM | Kd (mutant MGL; [5]): 1.2 µM |
| O=C(c1ccc2nc(C(F)(F)F)cc(Cl)c2c1)N1CC(N2CCN(C(=O)c3nccs3)CC2)C1 [Cpd 779] | 0.1 µM | 944 nM |  |
| O=C(c1ccc2c(c1)ncn2CCC(F)(F)F)N1CC(N2CCN(C(=O)c3nccs3)CC2)C1 [Cpd 780] |  | 978 nM | Kd (mutant MGL; [6]): 0.128 µM |
| COCCOc1ccc(C(=O)N2CC(N3CCN(C(=O)c4nccs4)CC3)C2)cc1 [Cpd 782] |  | 1070 nM | Kd (mutant MGL; [4]): 0.463 µM |
| Cc1nc2cc(C(=O)N3CC(N4CCN(C(=O)c5nccs5)CC4)C3)ccc2s1 [Cpd 783] |  | 1090 nM | Kd (mutant MGL; [4]): 0.732 µM |
